Where “and” joins values, the source holds several entries; their conditions need not be identical. Equal entries are not always repeated. Calls of active or inactive are those of the source.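 How the source made its calls: active means compounds giving half or more protection of infected cells from virus-caused growth loss, again on retest; inactive means the rest.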

The subject of this assay is CEM cells HIV-1 protection, formazan growth assay. Briefly: NCI AIDS Antiviral Assay. The conditions noted are these: for IC50: measured here: growth of uninfected CEM cells. The essentials: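 CEM (human) cells, HIV-1 infected vs uninfected, 5-point dosing, formazan growth read-out. Retest threshold 50% protection.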

The EC50 is the concentration giving half of the maximal effect. A word on the IC50: it is the concentration at which inhibition is half-maximal. Low values mean greater potency, high ones weaker potency. `CC(=O)O[C@@H]1CN(S(=O)(=O)c2ccc(C)cc2)C[C@@H]1C1CCCCC1`: the EC50 was more than 200 µM and the IC50 is 35.5 µM.

Regarding `COc1cc2c3c(c1)CCCN3CCC2`, the EC50 was more than 200 µM and the IC50 amounted to 13.2 µM. In the case of `Cc1cc(Br)c(N2C3=C(CC4=C2CCCC4=O)C(=O)CCC3)c(Br)c1`, the EC50 is more than 100 µM and the IC50 was found to be 21.9 µM. The matching figures for `C=CCCCCCCCCC(=O)NCc1nc2ccccc2[nH]1`: more than 200 µM and 29.5 µM.

Turning to `O=C1[C@H](Cl)[C@H]2c3cc4ccccc4nc3Oc3ccccc3N12`, the EC50 was more than 22.4 µM and the IC50 is more than 22.4 µM.

In the case of `CC(C)c1cccc(C(C)C)c1N1C(=O)C(=O)C(c2nc3ccccc3o2)C(=O)C1=O`, the outcome was inactive.

On to `Clc1ccc(Nc2nc(Cl)c3[nH]cnc3n2)cc1Cl`, for which the EC50 was more than 200 µM and the IC50 turned out to be 63.1 µM. The matching figures for `CC(/C=N/Nc1ccc([N+](=O)[O-])cn1)=N/Nc1ccc([N+](=O)[O-])cn1`: more than 200 µM and more than 200 µM. Consider `O=C(Nc1ccc([N+](=O)[O-])cc1)N(c1ccccn1)c1ccccn1`, for which the EC50 was more than 200 µM and the IC50 is 151 µM.

`O=C1c2c(O)cc(O)c(OC3OC(CO)C(O)C(O)C3O)c2OC(c2ccc(O)c(O)c2)C1O` (stereo unspecified): the EC50 was more than 513 µM and the IC50 came to 57.5 µM. For `O=C1C2Nc3ccccc3SC2C(=O)N1c1cccc([N+](=O)[O-])c1` (stereo unspecified) the same measures were more than 55 µM and more than 55 µM. For `COc1ccc(-c2c(C#N)c(N)n(C3OC(CO)C(O)C(O)C3O)c(=S)c2C#N)cc1` (stereo unspecified), the EC50 is more than 200 µM; the half-maximal inhibitory concentration (IC50) is 95.5 µM and 129 µM.

In the case of `CC(C)(C)Cc1cc(O)ccc1O`, the EC50 was more than 6.03 µM and the IC50 is 3.39 µM. The matching figures for `O=[N+]([O-])c1ccc(C2=NOC(c3ccccc3)N2C23CC4CC(CC(C4)C2)C3)cc1` (stereo unspecified): more than 200 µM and 107 µM. For the molecule `O=c1[nH]c(=S)[nH]c2c1sc(=S)n2-c1ccccc1`, the EC50 is more than 89.1 µM and the IC50 was more than 89.1 µM.

In the case of `CN(C)NC1=C([N+](=O)[O-])C=NN(c2ccccc2)C1`, the EC50 is more than 27.5 µM and the half-inhibitory concentration (IC50) was 0.468 µM. The matching figures for `C=C1CC(Cn2cc(C)c(=O)[nH]c2=O)(c2ccc(-c3ccccc3)cc2)OC1=O` (stereo unspecified): more than 20 µM and 0.288 µM. As to `CC(C)NC(=O)NCCc1c[nH]c2ccccc12`, the EC50 is more than 200 µM and the IC50 is more than 200 µM.

With `CCCCN1C(=N)C2(C#N)C(CCC)C(CC)C1C2(C#N)C#N` (stereo unspecified), the EC50 is more than 200 µM and the IC50 was 158 µM.

`CC(C)c1cccc(C(C)C)c1N=C(N)C#N`: the EC50 was more than 195 µM and the IC50 came out at 93.3 µM. For `CN(C)c1ccc(N2C(=S)SC(=Nc3ccccc3)C2=Nc2ccccc2)cc1` the same measures were more than 200 µM and more than 200 µM. In the case of `CC(=O)C(N=Nc1nccs1)C(C)=O`, the EC50 is more than 200 µM and the IC50 came out at 55 µM. Consider `COc1cccc(/C=N/N=C(/N)NO)c1`, for which the result was inactive. Take `C[N+]12CC3C4CC(C3C1)C2C4` (stereo unspecified): the EC50 was more than 912 µM and the IC50 was more than 912 µM.

For `CC1OC(OC23C(=O)CC(C)(O)CC2(O)C=CC2=C3C(=O)c3ccc(C4CC(OC5CCC(OC6CC(O)C(O)C(C)O6)C(C)O5)C(O)C(C)O4)c(O)c3C2=O)CCC1O` (stereo unspecified), the EC50 is more than 295 µM and the IC50 worked out at 4.9 µM. For `CCOC(=O)c1sc2[n+](c1C)C(=O)/C(=C/c1ccccc1Cl)S2` the same measures were more than 200 µM and 3.39 µM. In the case of `O=S1(=O)CC2C(C1)C1(c3ccccc3)OC2(c2ccccc2)c2ccccc21` (stereo unspecified), the result was inactive. Take `CCNC(=O)OCc1cnc(C)c(OC(=O)NCC)c1COC(=O)NCC`: the EC50 is more than 200 µM and the IC50 came out at 31.6 µM. For the molecule `COc1cc(C(O)C2C(=O)OCC2C2(c3ccc4c(c3)OCO4)SCCCS2)cc(OC)c1OC` (stereo unspecified), the EC50 is more than 36.3 µM and the IC50 was more than 36.3 µM. On to `O=C1CCCCC/C1=C\c1cccc(Cl)c1`, for which the EC50 is more than 200 µM and the half-inhibitory concentration (IC50) was 28.8 µM. Regarding `N=C1C(=N)c2ccccc2-c2ccccc21.[Cl-].[Rh+3].c1cnc2c(c1)ccc1cccnc12.c1cnc2c(c1)ccc1cccnc12`, the outcome was inactive.

As for `C#CCN(N=O)C(=O)NC(CCCNC(=O)OCc1ccccc1)C(=O)OCc1ccccc1` (stereo unspecified), the EC50 is more than 28.8 µM and the IC50 was more than 28.8 µM. Regarding `CCOC(=O)C(=O)Nc1ccc(C)c(C)c1`, the EC50 is more than 427 µM and the IC50 was more than 427 µM. On to `CCOC(=O)CSc1c(C(=O)OCC)c(=O)n(-c2ccccc2)c(=S)n1-c1ccccc1`, for which the EC50 is more than 200 µM and the IC50 stood at 31.6 µM.

Turning to `C[C@]12CC[C@H](O)CC1=CCC1C2CC[C@@]2(C)C1CC[C@@H]2COS(=O)(=O)O` (stereo partly specified), the EC50 is more than 61.7 µM and the IC50 was more than 61.7 µM. Take `COc1ccc(CC(=O)NC(C)Cc2ccc(OC)c(OC)c2)cc1OC` (stereo unspecified): the outcome was inactive. On to `CC(=O)OC12c3ccccc3-c3ccccc3C1C1C(=O)N(C)C(=O)C12Cl` (stereo unspecified), for which the EC50 was more than 67.6 µM and the 50% inhibitory concentration (IC50) is more than 67.6 µM. As to `CC(C)=CCC[C@@H](C)C1=C(O)C(N[C@H](C)c2ccccc2)=C(C)C(=O)C1=O`, the EC50 was more than 200 µM and the concentration for half-maximal inhibition (IC50) was 1.66 µM. For `CC(=O)O[C@]1(C)CCC2C(C)C(=O)OC2C2C(C)[C@@H](O)CC21` (stereo partly specified) the same measures were more than 200 µM and 34.7 µM. For `C=C[C@H](C)[C@H](O[Si](C)(C)C(C)(C)C)c1c(O)c2c(c3c(CCC)cc(=O)oc13)OC(C)(C)C=C2` the same measures were more than 200 µM and 39.8 µM. Consider `COc1cc(CC2c3cc(OC)c(OC)cc3CCN2C)c(Oc2cc3c(cc2OC)-c2c(O)c(OC)cc4c2C(C3)N(C)CC4)cc1OC` (stereo unspecified), for which the result was inactive.

As for `O=C1NC23CC=CCC12CCC3` (stereo unspecified), the EC50 was more than 1230 µM and the IC50 was more than 1230 µM. With `Cc1ccc(-c2ccc(Nc3c4ccccc4nc4ccccc34)cc2)cn1`, the EC50 is more than 200 µM and the IC50 came to 2.69 µM. Consider `COc1cc([N+](=O)[O-])cc2c1NC(=O)C2(C)SC` (stereo unspecified), for which the EC50 was more than 200 µM and the IC50 stood at 30.9 µM.

Regarding `CCC12C[N+]3([O-])CCc4c([nH]c5ccccc45)C(C(=O)OC)(c4cc5c(cc4OC)N(C)C4C(O)(C(=O)OC)C(OC(C)=O)C6(CC)C=CCN7CCC54C76)CC(C3)C1O2` (stereo unspecified), the outcome was inactive. With `CCOC(=O)c1sc(SC)nc1NC(=O)c1ccc([N+](=O)[O-])cc1`, the EC50 was more than 200 µM and the IC50 was more than 200 µM. In the case of `CCOC(=O)C1=C(O)CC(=O)N=C1N1CCCC1`, the EC50 is more than 200 µM and the IC50 was more than 200 µM. On to `O=C(/C=C(\N=P(c1ccccc1)(c1ccccc1)c1ccccc1)C(F)(F)C(F)(F)C(F)(F)C(F)(F)C(F)(F)C(F)(F)C(F)(F)F)c1ccccc1`, for which the EC50 is more than 200 µM and the 50% inhibitory concentration (IC50) is more than 200 µM. `O=C1OC(CS(=O)(=O)c2ccccc2)CC1O` (stereo unspecified): the EC50 is more than 200 µM and the IC50 is more than 200 µM. `CCOC(=O)C(NC(=O)CC(C)C)(NC(C)C)C(F)(F)F` (stereo unspecified): the EC50 is more than 200 µM and the IC50 is more than 200 µM. Consider `O=C(/C=C/c1ccc2c(c1)OCO2)NCCc1ccco1`, for which the EC50 is more than 200 µM and the IC50 came to 126 µM. Consider `Nc1ncnc2c1ncn2C1OC(CO)C(O)C1O` (stereo unspecified), for which the outcome was inactive. As to `CC(C)CCCC(C)[C@H]1CC[C@H]2[C@@H]3CC[C@H]4C[C@@H](CCC=C(c5cc(Cl)c(OC(=O)c6ccccc6)c(C(=O)O)c5)c5cc(Cl)c(OC(=O)c6ccccc6)c(C(=O)O)c5)CC[C@]4(C)[C@H]3CC[C@]12C` (stereo partly specified), the EC50 was more than 200 µM and the IC50 was more than 200 µM. As for `CCCC(=O)C(CC)/C(CCC(=O)N(Cc1ccccc1)Cc1ccccc1)=N/NC(=O)C[N+](C)(C)C` (stereo unspecified), the result was inactive. As to `COC(=O)c1noc2c1CSC1=C2CS(=O)(=O)c2ccccc21`, the EC50 was more than 200 µM and the IC50 is more than 200 µM.

Turning to `NC(CSS(=O)(=O)O)=NCCc1c[nH]c(=S)[nH]1`, the EC50 is more than 200 µM and the IC50 was found to be 34.7 µM.

Consider `O=C(/C=C\c1cccc2ccccc12)c1ccc(F)cc1`, for which the EC50 is more than 7.24 µM and the IC50 is more than 7.24 µM. Take `O=S1(=O)C2C=CCC1C(c1ccccc1)CC2` (stereo unspecified): the EC50 was more than 1000 µM and the IC50 was more than 1000 µM. With `O/N=C/c1cc2c(cc1Br)OCO2`, the EC50 is more than 155 µM and the IC50 is more than 155 µM.

Regarding `O=C(O)CCc1coc2ccc(O)cc12`, the result was inactive. Regarding `Cc1c(C(=O)CSc2nc3ccc([N+](=O)[O-])cc3[nH]2)c(=O)n(-c2ccccc2)n1C`, the EC50 was more than 17 µM and the IC50 was more than 17 µM. For `Cc1cccnc1NC(=S)Nc1ncccc1C`, the EC50 is more than 200 µM and the IC50 amounted to 186 µM. On to `O=C1Cc2c([nH]c3ccccc23)-c2ccccc2N1`, for which the EC50 was more than 105 µM and the IC50 amounted to 69.2 µM. `Cc1ccc(/C(O)=C/c2nc3ccccc3oc2=O)cc1`: the EC50 was more than 200 µM and the IC50 was 55 µM. As to `CCCCCCCCCCCCCCCCP(=O)(O)OP(=O)(O)OCC1OC(n2ccc(N)nc2=O)C(O)C1O` (stereo unspecified), the EC50 was more than 200 µM. On to `O=C1c2ccccc2/C=C\C(c2ccccc2)=N/N1c1ccccc1Cl`, for which the EC50 was more than 200 µM and the IC50 turned out to be 12.6 µM.

On to `CC(=O)OC1CCC2C3CCc4c(C)ccc(OS(=O)(=O)c5ccccc5)c4C3CCC12C` (stereo unspecified), for which the EC50 was more than 200 µM and the IC50 was more than 200 µM. Consider `N#Cc1c(NC(=O)CN2CCOCC2)c(C(=O)Nc2ccccc2)n2c1CCCC2`, for which the EC50 is more than 200 µM and the IC50 was more than 200 µM.

Turning to `CCOC(=O)C1=C(C#N)S(=O)(=O)c2c(oc(C)c2C)N1`, the EC50 is more than 200 µM and the 50% inhibitory concentration (IC50) is more than 200 µM. For `O=C(NNC(=S)Nc1ccc(Br)cc1)c1cc(-c2ccccc2)nc2ccccc12`, the EC50 is more than 200 µM and the IC50 was found to be 9.77 µM.

In the case of `O=C(c1ccccc1)c1ccc(C(=O)c2ccccc2)cc1`, the EC50 was more than 5.01 µM and the IC50 is more than 5.01 µM.

The values are drawn from PubChem BioAssay AID179 (DTP/NCI, 2004).
